Test results from the OligoGym collection.
Oligonucleotides are given in HELM: sugar(base)linkage, 5' to 3'; d 2'-deoxyribose, r ribose, m 2'-O-methylribose, p phosphate. ss, as = sense and antisense strand

Molecular target: UBE2N
Experiment: reporter assay of Huesken 2005
Conditions: siRNA
Further: test concentration or dose not given here.

Going from “RNA1{r(C)p.r(U)p.r(U)p.r(G)p.r(A)p.r(A)p.r(C)p.r(U)p.r(A)p.r(U)p.r(U)p.r(C)p.r(C)p.r(U)p.r(U)p.r(C)p.r(C)p.r(A)p.r(G)p.d(T)p.d(T)}|RNA2{r(C)p.r(U)p.r(G)p.r(G)p.r(A)p.r(A)p.r(G)p.r(G)p.r(A)p.r(A)p.r(U)p.r(A)p.r(G)p.r(U)p.r(U)p.r(C)p.r(A)p.r(A)p.r(G)p.d(T)p.d(T)}$$$RNA1{StrandType:ss}|RNA2{StrandType:as}$” to “RNA1{r(C)p.r(U)p.r(U)p.r(U)p.r(G)p.r(A)p.r(G)p.r(G)p.r(G)p.r(A)p.r(G)p.r(G)p.r(G)p.r(A)p.r(C)p.r(U)p.r(U)p.r(U)p.r(U)p.d(T)p.d(T)}|RNA2{r(A)p.r(A)p.r(A)p.r(A)p.r(G)p.r(U)p.r(C)p.r(C)p.r(C)p.r(U)p.r(C)p.r(C)p.r(C)p.r(U)p.r(C)p.r(A)p.r(A)p.r(A)p.r(G)p.d(G)p.d(G)}$$$RNA1{StrandType:ss}|RNA2{StrandType:as}$”, the normalised inhibition (eCFP-eYFP dual reporter) falls from 84.8% to 70.6%.

First: RNA1{r(G)p.r(A)p.r(A)p.r(A)p.r(C)p.r(A)p.r(G)p.r(C)p.r(U)p.r(A)p.r(G)p.r(A)p.r(G)p.r(C)p.r(A)p.r(U)p.r(G)p.r(G)p.r(A)p.d(T)p.d(T)}|RNA2{r(U)p.r(C)p.r(C)p.r(A)p.r(U)p.r(G)p.r(C)p.r(U)p.r(C)p.r(U)p.r(A)p.r(G)p.r(C)p.r(U)p.r(G)p.r(U)p.r(U)p.r(U)p.r(C)p.d(T)p.d(A)}$$$RNA1{StrandType:ss}|RNA2{StrandType:as}$
Second: RNA1{r(G)p.r(A)p.r(A)p.r(C)p.r(C)p.r(A)p.r(G)p.r(U)p.r(U)p.r(C)p.r(C)p.r(U)p.r(G)p.r(G)p.r(C)p.r(A)p.r(U)p.r(C)p.r(A)p.d(T)p.d(T)}|RNA2{r(U)p.r(G)p.r(A)p.r(U)p.r(G)p.r(C)p.r(C)p.r(A)p.r(G)p.r(G)p.r(A)p.r(A)p.r(C)p.r(U)p.r(G)p.r(G)p.r(U)p.r(U)p.r(C)p.d(T)p.d(G)}$$$RNA1{StrandType:ss}|RNA2{StrandType:as}$
The normalised inhibition (eCFP-eYFP dual reporter) of the first is higher: 100% for the first, 36% for the second.

First: RNA1{r(G)p.r(A)p.r(A)p.r(C)p.r(U)p.r(A)p.r(U)p.r(U)p.r(C)p.r(C)p.r(U)p.r(U)p.r(C)p.r(C)p.r(A)p.r(G)p.r(A)p.r(A)p.r(G)p.d(T)p.d(T)}|RNA2{r(C)p.r(U)p.r(U)p.r(C)p.r(U)p.r(G)p.r(G)p.r(A)p.r(A)p.r(G)p.r(G)p.r(A)p.r(A)p.r(U)p.r(A)p.r(G)p.r(U)p.r(U)p.r(C)p.d(A)p.d(A)}$$$RNA1{StrandType:ss}|RNA2{StrandType:as}$
Second: RNA1{r(G)p.r(A)p.r(A)p.r(G)p.r(A)p.r(C)p.r(C)p.r(A)p.r(A)p.r(C)p.r(G)p.r(A)p.r(A)p.r(G)p.r(C)p.r(C)p.r(C)p.r(A)p.r(A)p.d(T)p.d(T)}|RNA2{r(U)p.r(U)p.r(G)p.r(G)p.r(G)p.r(C)p.r(U)p.r(U)p.r(C)p.r(G)p.r(U)p.r(U)p.r(G)p.r(G)p.r(U)p.r(C)p.r(U)p.r(U)p.r(C)p.d(C)p.d(A)}$$$RNA1{StrandType:ss}|RNA2{StrandType:as}$
The normalised inhibition (eCFP-eYFP dual reporter) of the first is higher: 87.5% for the first, 85.4% for the second.

Compared with “RNA1{r(G)p.r(A)p.r(A)p.r(G)p.r(C)p.r(C)p.r(C)p.r(A)p.r(A)p.r(G)p.r(C)p.r(C)p.r(A)p.r(U)p.r(A)p.r(G)p.r(A)p.r(A)p.r(A)p.d(T)p.d(T)}|RNA2{r(U)p.r(U)p.r(U)p.r(C)p.r(U)p.r(A)p.r(U)p.r(G)p.r(G)p.r(C)p.r(U)p.r(U)p.r(G)p.r(G)p.r(G)p.r(C)p.r(U)p.r(U)p.r(C)p.d(G)p.d(T)}$$$RNA1{StrandType:ss}|RNA2{StrandType:as}$”, “RNA1{r(G)p.r(A)p.r(U)p.r(C)p.r(C)p.r(A)p.r(U)p.r(U)p.r(A)p.r(G)p.r(C)p.r(A)p.r(A)p.r(A)p.r(U)p.r(G)p.r(A)p.r(U)p.r(G)p.d(T)p.d(T)}|RNA2{r(C)p.r(A)p.r(U)p.r(C)p.r(A)p.r(U)p.r(U)p.r(U)p.r(G)p.r(C)p.r(U)p.r(A)p.r(A)p.r(U)p.r(G)p.r(G)p.r(A)p.r(U)p.r(C)p.d(A)p.d(T)}$$$RNA1{StrandType:ss}|RNA2{StrandType:as}$” is lower in normalised inhibition (eCFP-eYFP dual reporter): 90.3% for the first, 61.3% for the second.

Going from “RNA1{r(G)p.r(C)p.r(A)p.r(A)p.r(A)p.r(U)p.r(G)p.r(A)p.r(U)p.r(G)p.r(U)p.r(A)p.r(G)p.r(C)p.r(G)p.r(G)p.r(A)p.r(G)p.r(C)p.d(T)p.d(T)}|RNA2{r(G)p.r(C)p.r(U)p.r(C)p.r(C)p.r(G)p.r(C)p.r(U)p.r(A)p.r(C)p.r(A)p.r(U)p.r(C)p.r(A)p.r(U)p.r(U)p.r(U)p.r(G)p.r(C)p.d(T)p.d(A)}$$$RNA1{StrandType:ss}|RNA2{StrandType:as}$” to “RNA1{r(G)p.r(C)p.r(A)p.r(G)p.r(A)p.r(U)p.r(C)p.r(C)p.r(G)p.r(C)p.r(A)p.r(C)p.r(A)p.r(G)p.r(U)p.r(U)p.r(C)p.r(U)p.r(G)p.d(T)p.d(T)}|RNA2{r(C)p.r(A)p.r(G)p.r(A)p.r(A)p.r(C)p.r(U)p.r(G)p.r(U)p.r(G)p.r(C)p.r(G)p.r(G)p.r(A)p.r(U)p.r(C)p.r(U)p.r(G)p.r(C)p.d(A)p.d(G)}$$$RNA1{StrandType:ss}|RNA2{StrandType:as}$”, the normalised inhibition (eCFP-eYFP dual reporter) rises from 49.8% to 86.3%.

Going from “RNA1{r(G)p.r(C)p.r(C)p.r(G)p.r(A)p.r(A)p.r(C)p.r(C)p.r(A)p.r(G)p.r(A)p.r(U)p.r(G)p.r(A)p.r(G)p.r(A)p.r(G)p.r(C)p.r(A)p.d(T)p.d(T)}|RNA2{r(U)p.r(G)p.r(C)p.r(U)p.r(C)p.r(U)p.r(C)p.r(A)p.r(U)p.r(C)p.r(U)p.r(G)p.r(G)p.r(U)p.r(U)p.r(C)p.r(G)p.r(G)p.r(C)p.d(T)p.d(T)}$$$RNA1{StrandType:ss}|RNA2{StrandType:as}$” to “RNA1{r(G)p.r(G)p.r(A)p.r(C)p.r(U)p.r(U)p.r(U)p.r(U)p.r(A)p.r(A)p.r(A)p.r(C)p.r(U)p.r(U)p.r(G)p.r(A)p.r(A)p.r(C)p.r(U)p.d(T)p.d(T)}|RNA2{r(A)p.r(G)p.r(U)p.r(U)p.r(C)p.r(A)p.r(A)p.r(G)p.r(U)p.r(U)p.r(U)p.r(A)p.r(A)p.r(A)p.r(A)p.r(G)p.r(U)p.r(C)p.r(C)p.d(C)p.d(T)}$$$RNA1{StrandType:ss}|RNA2{StrandType:as}$”, the normalised inhibition (eCFP-eYFP dual reporter) rises from 82.6% to 87.2%.

First: RNA1{r(G)p.r(G)p.r(U)p.r(C)p.r(C)p.r(C)p.r(C)p.r(A)p.r(G)p.r(C)p.r(A)p.r(C)p.r(U)p.r(G)p.r(C)p.r(A)p.r(G)p.r(A)p.r(U)p.d(T)p.d(T)}|RNA2{r(A)p.r(U)p.r(C)p.r(U)p.r(G)p.r(C)p.r(A)p.r(G)p.r(U)p.r(G)p.r(C)p.r(U)p.r(G)p.r(G)p.r(G)p.r(G)p.r(A)p.r(C)p.r(C)p.d(A)p.d(C)}$$$RNA1{StrandType:ss}|RNA2{StrandType:as}$
Second: RNA1{r(G)p.r(U)p.r(A)p.r(G)p.r(A)p.r(C)p.r(A)p.r(A)p.r(G)p.r(U)p.r(U)p.r(G)p.r(G)p.r(G)p.r(A)p.r(A)p.r(G)p.r(A)p.r(A)p.d(T)p.d(T)}|RNA2{r(U)p.r(U)p.r(C)p.r(U)p.r(U)p.r(C)p.r(C)p.r(C)p.r(A)p.r(A)p.r(C)p.r(U)p.r(U)p.r(G)p.r(U)p.r(C)p.r(U)p.r(A)p.r(C)p.d(A)p.d(T)}$$$RNA1{StrandType:ss}|RNA2{StrandType:as}$
The normalised inhibition (eCFP-eYFP dual reporter) of the first is lower: 62.2% for the first, 94% for the second.

First: RNA1{r(G)p.r(U)p.r(G)p.r(G)p.r(U)p.r(C)p.r(A)p.r(U)p.r(U)p.r(G)p.r(C)p.r(U)p.r(G)p.r(G)p.r(C)p.r(C)p.r(C)p.r(U)p.r(C)p.d(T)p.d(T)}|RNA2{r(G)p.r(A)p.r(G)p.r(G)p.r(G)p.r(C)p.r(C)p.r(A)p.r(G)p.r(C)p.r(A)p.r(A)p.r(U)p.r(G)p.r(A)p.r(C)p.r(C)p.r(A)p.r(C)p.d(A)p.d(T)}$$$RNA1{StrandType:ss}|RNA2{StrandType:as}$
Second: RNA1{r(G)p.r(U)p.r(G)p.r(G)p.r(U)p.r(C)p.r(C)p.r(C)p.r(C)p.r(A)p.r(G)p.r(C)p.r(A)p.r(C)p.r(U)p.r(G)p.r(C)p.r(A)p.r(G)p.d(T)p.d(T)}|RNA2{r(C)p.r(U)p.r(G)p.r(C)p.r(A)p.r(G)p.r(U)p.r(G)p.r(C)p.r(U)p.r(G)p.r(G)p.r(G)p.r(G)p.r(A)p.r(C)p.r(C)p.r(A)p.r(C)p.d(T)p.d(T)}$$$RNA1{StrandType:ss}|RNA2{StrandType:as}$
The normalised inhibition (eCFP-eYFP dual reporter) of the first is lower: 54.1% for the first, 59.4% for the second.

Compared with “RNA1{r(G)p.r(U)p.r(U)p.r(C)p.r(C)p.r(U)p.r(G)p.r(G)p.r(C)p.r(A)p.r(U)p.r(C)p.r(A)p.r(A)p.r(A)p.r(G)p.r(C)p.r(C)p.r(G)p.d(T)p.d(T)}|RNA2{r(C)p.r(G)p.r(G)p.r(C)p.r(U)p.r(U)p.r(U)p.r(G)p.r(A)p.r(U)p.r(G)p.r(C)p.r(C)p.r(A)p.r(G)p.r(G)p.r(A)p.r(A)p.r(C)p.d(T)p.d(G)}$$$RNA1{StrandType:ss}|RNA2{StrandType:as}$”, “RNA1{r(U)p.r(A)p.r(G)p.r(A)p.r(G)p.r(C)p.r(A)p.r(U)p.r(G)p.r(G)p.r(A)p.r(C)p.r(U)p.r(A)p.r(G)p.r(G)p.r(C)p.r(U)p.r(A)p.d(T)p.d(T)}|RNA2{r(U)p.r(A)p.r(G)p.r(C)p.r(C)p.r(U)p.r(A)p.r(G)p.r(U)p.r(C)p.r(C)p.r(A)p.r(U)p.r(G)p.r(C)p.r(U)p.r(C)p.r(U)p.r(A)p.d(G)p.d(C)}$$$RNA1{StrandType:ss}|RNA2{StrandType:as}$” is lower in normalised inhibition (eCFP-eYFP dual reporter): 78.2% for the first, 73.8% for the second.

First: RNA1{r(U)p.r(A)p.r(G)p.r(A)p.r(U)p.r(A)p.r(U)p.r(U)p.r(U)p.r(U)p.r(G)p.r(A)p.r(A)p.r(A)p.r(G)p.r(A)p.r(U)p.r(A)p.r(A)p.d(T)p.d(T)}|RNA2{r(U)p.r(U)p.r(A)p.r(U)p.r(C)p.r(U)p.r(U)p.r(U)p.r(C)p.r(A)p.r(A)p.r(A)p.r(A)p.r(U)p.r(A)p.r(U)p.r(C)p.r(U)p.r(A)p.d(G)p.d(A)}$$$RNA1{StrandType:ss}|RNA2{StrandType:as}$
Second: RNA1{r(U)p.r(A)p.r(G)p.r(C)p.r(G)p.r(G)p.r(A)p.r(G)p.r(C)p.r(A)p.r(G)p.r(U)p.r(G)p.r(G)p.r(A)p.r(A)p.r(G)p.r(A)p.r(C)p.d(T)p.d(T)}|RNA2{r(G)p.r(U)p.r(C)p.r(U)p.r(U)p.r(C)p.r(C)p.r(A)p.r(C)p.r(U)p.r(G)p.r(C)p.r(U)p.r(C)p.r(C)p.r(G)p.r(C)p.r(U)p.r(A)p.d(C)p.d(A)}$$$RNA1{StrandType:ss}|RNA2{StrandType:as}$
The normalised inhibition (eCFP-eYFP dual reporter) of the first is higher: 80.6% for the first, 40.2% for the second.
